In US20260365699A1, “Compound Production Method” (The University of Tokyo, priority 2022, published 2026):
*1 amine or outer side, *2 acyl side, *3 side chain or, on linkers, in order; H or OH if unused. Where a SMILES comes first, the peptide text is derived from it. Bridges are numbered along the chain shown (N, C = ends). [ ]: non-standard residue; d: D form. The star is where a group is joined. X2 = C=C(N[*:2])c1nc(-c2nc(-c3nc(C(=O)NCCC(=O)NCCOCCOCCCCCCCl)cs3)ccc2C(=O)[*:1])cs1; X1 = C=C(N[*:2])c1nc(-c2nc(-c3nc(C(=O)OC)cs3)ccc2C(=O)[*:1])cs1; Nle = CCCC[C@H](N)C(=O)O; Dhb = C/C=C(\N)C(=O)O; Dha = C=C(N)C(=O)O; Cam = NC(=O)C*

Assays:
HEK293T cells = assay: Chloroalkane penetration assay (CAPA) in HEK293T cells; type: cell-based, human; conditions: compared with Tat
From the text: (§1) FIG. 11(a) illustrates TL12 which is a lactazole-like binder of TLR10, retrosynthesis thereof, and amino acid building blocks used. FIG. 11(b) illustrates a binding affinity (KD value) to IRAK4 and an inhibition (IC50) by the synthesized thiopeptide. The half-life (τ1/2) in the human serum and the inhibition (IC50) of the NF-kB signaling pathway in THP-1 cells are also shown. These values were obtained by non-linear regression of the experimental data.: The shaded C in IR4 is hGln (which is a product of IAA alkylation of Cys, but is replaced by homoglutamine); the shaded M in IR15 is Nle (in which Met is replaced by Nle); and the shaded T in IR15 represents a Dhb residue. […] FIG. 11(c) illustrates the binding affinity (KD value) to TLR10 and the half-life (τ1/2) in the human serum.: The shaded C in TL1, TL8, and TL16 is hGln (a product of IAA alkylation of Cys, but is replaced by homoglutamine); the shaded M in TL8, TL11, TL12, TL13, and TL18 is Nle (in which Met is replaced by Nle); the shaded S in 8S of TL11 and TL12 represents a Dha residue; and the shaded S in 9S of TL12 represents an oxazole. […] FIG. 11(d) illustrates the results of a CAPA assay of IR1, IR15, and TP8. The assay was carried out in HEK293T cells.
(§2) Finally, the cell activity of the thiopeptide against IRAK4, which is an intracellular target protein localized in the cytoplasm and the cell nucleus, was examined. […]

HEK293H cells = assay: Chloroalkane penetration assay (CAPA) in HEK293H cells; type: cell-based, human; conditions: chloroalkane-labeled derivatives
Experimental: (§3) The sub-confluent HCT116 cells were treated with the indicated compounds for 24 hours and the cellular levels of TNIK, TNIK pSer764 (autophosphorylation product), c-Myc, and Axin2 were analyzed by an immunoblotting method (FIG. 7(b)) and RT-qPCR (FIG. 7(c)).
Next, it was confirmed whether or not the obtained compound could also access an intracellular target protein (TNIK is localized in the cytoplasm and the cell nucleus) in a human cell model. First, a chloroalkane penetration assay (CAPA) was performed on 4 types (TP1-ct, TP8-ct, TP14-ct, and TP15-ct) out of the 6 types of chloroalkane-labeled thiopeptide derivatives shown in FIG. 5 in order to measure an uptake degree into the cytoplasm (Peraro, L.; Deprey, K. L.; Moser, M. K.; Zou, Z.; Ball, H. L.; Levine, B.; and Kritzer, J. A. Cell Penetration Profiling Using the Chloroalkane Penetration Assay. J. Am. Chem. Soc. 2018, 140, 11360-11369).

TNIK [1] = target: TNIK (Homo sapiens, UniProt Q9UKE5); assay: Surface plasmon resonance (SPR) binding affinity to TNIK; conditions: saturated concentration of ATP (1 mM; 15-fold higher than KM)
From the text: Surface plasmon resonance (SPR) was used to evaluate the binding affinity of the thiopeptide synthesized in Example 2 to TNIK.

[2] = Stability / reactivity towards glutathione (GSH), LC/MS; type: physicochemical; conditions: for reactivity with GSH, in words: increasing concentration of glutathione (GSH)
TNIK pSer764 = assay: Immunoblotting of TNIK pSer764 (TNIK autophosphorylation) in HCT116 cells; type: cell-based, human; conditions: 20 μM of TP15, 24 hours, immunoblotting
Experimental: as §3
Nat. Commun. 2016, 7, 12586).

TNIK [3] = assay: TNIK protein level in HCT116 cells (immunoblotting); type: cell-based, human
Experimental: as §3

TNIK mRNA = TNIK mRNA level in HCT116 cells (RT-qPCR); type: cell-based, human
Experimental: as §3

[4] = system: NF-kB signaling pathway in THP-1 cells; assay: Inhibition of NFkB reporter gene activity in THP1-XBlue stable cell line; type: cell-based, human
From the text: as §1, §2

[5] = Metabolic stability in human serum (LC/MS); type: in vitro ADME; conditions: 37 °C
Experimental: The compounds were incubated with a human serum at 37 °C, and the amount of the residual test substance at various points in time was quantified by LC/MS with respect to an internal standard substance. […] Next, it was examined whether or not the half-lives of the compounds were affected by the reactivity of the Dha residue. The Dha residue may be conjugated with various serum thiols.
In addition, the metabolic stability of all of the 14 types of candidate thiopeptides was examined. The compound was incubated with the human serum at 37 °C, and the amount of the residual thiopeptide at various points in time was quantified by LC/MS with respect to the internal standard substance. The half-life of the thiopeptide for TLR10 was generally as long as 38.2 hours, and the thiopeptide was stable.

Chain of TNIK (Homo sapiens, UniProt Q9UKE5) (Q9UKE5 whole entry): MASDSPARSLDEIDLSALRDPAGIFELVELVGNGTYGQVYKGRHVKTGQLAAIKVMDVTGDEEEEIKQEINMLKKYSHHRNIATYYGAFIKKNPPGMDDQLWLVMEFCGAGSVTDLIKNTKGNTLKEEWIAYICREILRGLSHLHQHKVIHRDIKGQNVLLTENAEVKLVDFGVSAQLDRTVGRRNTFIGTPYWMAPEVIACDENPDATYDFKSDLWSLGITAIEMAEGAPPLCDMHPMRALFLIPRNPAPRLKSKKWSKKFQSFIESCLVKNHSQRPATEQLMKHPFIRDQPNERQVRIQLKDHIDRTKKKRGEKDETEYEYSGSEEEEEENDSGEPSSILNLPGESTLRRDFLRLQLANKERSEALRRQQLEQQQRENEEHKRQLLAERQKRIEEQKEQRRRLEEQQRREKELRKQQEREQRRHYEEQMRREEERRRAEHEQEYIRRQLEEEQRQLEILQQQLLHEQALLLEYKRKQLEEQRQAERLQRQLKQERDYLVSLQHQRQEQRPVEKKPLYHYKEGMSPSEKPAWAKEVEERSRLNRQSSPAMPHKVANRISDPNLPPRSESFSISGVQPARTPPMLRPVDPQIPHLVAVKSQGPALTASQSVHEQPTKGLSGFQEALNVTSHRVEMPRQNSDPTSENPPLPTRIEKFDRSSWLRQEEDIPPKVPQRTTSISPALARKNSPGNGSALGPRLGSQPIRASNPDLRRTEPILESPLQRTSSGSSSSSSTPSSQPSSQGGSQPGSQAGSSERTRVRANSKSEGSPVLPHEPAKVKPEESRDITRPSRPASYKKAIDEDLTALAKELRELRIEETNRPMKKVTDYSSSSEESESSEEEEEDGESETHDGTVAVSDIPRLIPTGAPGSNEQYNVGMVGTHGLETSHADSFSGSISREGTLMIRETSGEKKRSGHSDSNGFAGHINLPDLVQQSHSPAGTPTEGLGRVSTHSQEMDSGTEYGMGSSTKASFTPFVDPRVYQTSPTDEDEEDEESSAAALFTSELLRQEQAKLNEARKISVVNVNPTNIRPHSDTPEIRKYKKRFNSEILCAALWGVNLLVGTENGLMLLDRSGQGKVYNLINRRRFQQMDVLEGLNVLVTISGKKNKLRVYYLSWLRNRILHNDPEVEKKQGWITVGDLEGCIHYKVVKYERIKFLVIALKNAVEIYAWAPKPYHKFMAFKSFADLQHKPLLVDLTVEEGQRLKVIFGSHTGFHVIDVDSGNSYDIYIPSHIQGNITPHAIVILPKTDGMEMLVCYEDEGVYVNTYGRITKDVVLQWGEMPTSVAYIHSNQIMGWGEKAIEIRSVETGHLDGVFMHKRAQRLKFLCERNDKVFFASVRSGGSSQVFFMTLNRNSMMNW

Structure (SMILES): C=C1NC(=O)/C(=C/C)NC(=O)[C@H](Cc2c[nH]c3ccccc23)NC(=O)[C@H](Cc2c[nH]cn2)NC(=O)[C@H](Cc2c[nH]c3ccccc23)NC(=O)[C@H]([C@@H](C)O)NC(=O)[C@H]([C@@H](C)CC)NC(=O)[C@H](Cc2ccccc2)NC(=O)[C@H](CCC(N)=O)NC(=O)[C@H](CCCNC(=N)N)NC(=O)[C@H](CCCCN)NC(=O)[C@H](CCCC)NC(=O)[C@H](CO)NC(=O)[C@H](Cc2c[nH]c3ccccc23)NC(=O)c2ccc(-c3nc(C(=O)OC)cs3)nc2-c2csc1n2 [IR15] (WS[Nle]KRQFITWHW[Dhb]; linker N-C via X1)
- uptake into cytoplasm of HEK293T cells, in words (HEK293T cells): taken up into the cytoplasm of HEK293T cells much more efficiently than Tat
- uptake into HEK293T cells relative to Tat (HEK293T cells; in the presence of serum): 2 fold

Structure (SMILES): C=C1NC(=O)c2csc(n2)[C@H]([C@@H](C)O)NC(=O)[C@H](C)NC(=O)[C@H]([C@@H](C)CC)NC(=O)[C@H](CCCNC(=N)N)NC(=O)CNC(=O)[C@H](CCCNC(=N)N)NC(=O)[C@H]([C@@H](C)O)NC(=O)[C@H](CCCNC(=N)N)NC(=O)[C@H]([C@@H](C)CC)NC(=O)[C@H]([C@@H](C)O)NC(=O)[C@H](Cc2c[nH]c3ccccc23)NC(=O)c2ccc(-c3nc(C(=O)NCCC(=O)NCCOCCOCCCCCCCl)cs3)nc2-c2csc1n2 [TP15-ct]
- cytoplasmic uptake (CAPA), in words (HEK293H cells): taken up into HEK293H cells at a concentration of a single-digit μM

Structure (SMILES): C=C1NC(=O)C(=C)NC(=O)[C@H](CCCCN)NC(=O)[C@H](CC(C)C)NC(=O)[C@H]([C@@H](C)O)NC(=O)[C@H](CCCCN)NC(=O)[C@H](Cc2ccc(O)cc2)NC(=O)[C@H]([C@@H](C)CC)NC(=O)[C@H](Cc2ccccc2)NC(=O)CNC(=O)[C@H](Cc2c[nH]c3ccccc23)NC(=O)c2ccc(-c3nc(C(=O)OC)cs3)nc2-c2csc(n2)C(=C)NC(=O)CNC1=O [TP1] (WGFIYKTLK[Dha][Dha]G; linker N-C via X1)
- binding to TNIK in the presence of ATP (TNIK [1]): bonded to TNIK in the presence of the saturated concentration of ATP
- reactivity with GSH, in words [2]: Dha11 and Dha12 in TP1 react with GSH
- cytoplasmic uptake (CAPA), in words (HEK293H cells): efficient cytoplasmic translocation

Structure (SMILES): C=C1NC(=O)CNC(=O)[C@H](CCCNC(=N)N)NC(=O)[C@H](Cc2ccc(O)cc2)NC(=O)[C@H](CC(C)C)NC(=O)[C@H](CO)NC(=O)[C@H](CCCCN)NC(=O)[C@H](CC(N)=O)NC(=O)CNC(=O)[C@H](Cc2ccccc2)NC(=O)[C@H](Cc2c[nH]c3ccccc23)NC(=O)[C@H](Cc2c[nH]c3ccccc23)NC(=O)c2ccc(-c3nc(C(=O)NCCC(=O)NCCOCCOCCCCCCCl)cs3)nc2-c2csc1n2 [TP14-ct] (WWFGNKSLYRG; linker N-C via X2)
- cytoplasmic uptake (CAPA), in words (HEK293H cells): taken up into HEK293H cells at a concentration of a single-digit μM

Structure (SMILES): OC1CCC(Oc2cccc3cnc(Nc4ccc5nc[nH]c5c4)nc23)CC1 (centres unmarked) [NCB0846, reference compound]
- level of TNIK pSer764 (TNIK pSer764): the same
- overall expression of TNIK, protein level (TNIK [3]): down-regulated
- overall expression of TNIK, mRNA level (TNIK mRNA): down-regulated

Structure (SMILES): C=C1NC(=O)/C(=C/C)NC(=O)[C@H](Cc2c[nH]c3ccccc23)NC(=O)[C@H](Cc2c[nH]cn2)NC(=O)[C@H](Cc2c[nH]c3ccccc23)NC(=O)[C@H]([C@@H](C)O)NC(=O)[C@H]([C@@H](C)CC)NC(=O)[C@H](Cc2ccccc2)NC(=O)[C@H](CCC(N)=O)NC(=O)[C@H](CCCNC(=N)N)NC(=O)[C@H](CCCCN)NC(=O)[C@H](CCCC)NC(=O)[C@H](CO)NC(=O)[C@H](Cc2c[nH]c3ccccc23)NC(=O)c2ccc(-c3nc(C(=O)NCCC(=O)NCCOCCOCCCCCCCl)cs3)nc2-c2csc1n2 [IR15-ct] (WS[Nle]KRQFITWHW[Dhb]; linker N-C via X2)
- inhibition of NFkB reporter gene activity, in words [4]: significant inhibition

Structure (SMILES): C=C1NC(=O)[C@H](CCCCN)NC(=O)[C@H](Cc2ccc(O)cc2)NC(=O)[C@H]([C@@H](C)CC)NC(=O)[C@H](CCCNC(=N)N)NC(=O)[C@H](CCCNC(=N)N)NC(=O)[C@H](CCCCN)NC(=O)[C@H](Cc2ccccc2)NC(=O)[C@H](CC(C)C)NC(=O)[C@H](CCSC)NC(=O)[C@H](CO)NC(=O)[C@H](Cc2c[nH]c3ccccc23)NC(=O)c2ccc(-c3nc(C(=O)NCCC(=O)NCCOCCOCCCCCCCl)cs3)nc2-c2csc1n2 [IR1-ct] (WSMLFKRRIYK; linker N-C via X2)
- inhibition of NFkB reporter gene activity, in words [4]: significant inhibition

Structure (SMILES): C=C1NC(=O)C(=C)NC(=O)[C@H](CCCCN)NC(=O)[C@H](CC(C)C)NC(=O)[C@H]([C@@H](C)O)NC(=O)[C@H](CCCCN)NC(=O)[C@H](Cc2ccc(O)cc2)NC(=O)[C@H]([C@@H](C)CC)NC(=O)[C@H](Cc2ccccc2)NC(=O)CNC(=O)[C@H](Cc2c[nH]c3ccccc23)NC(=O)c2ccc(-c3nc(C(=O)NCCC(=O)NCCOCCOCCCCCCCl)cs3)nc2-c2csc(n2)C(=C)NC(=O)CNC1=O [TP1-ct] (WGFIYKTLK[Dha][Dha]G; linker N-C via X2)
- cytoplasmic uptake (CAPA), in words (HEK293H cells): taken up into HEK293H cells at a concentration of a single-digit μM

Structure (SMILES): C=C1NC(=O)CNC(=O)[C@H](CCCNC(=N)N)NC(=O)[C@H](Cc2ccc(O)cc2)NC(=O)[C@H](CC(C)C)NC(=O)[C@H](CO)NC(=O)[C@H](CCCCN)NC(=O)[C@H](CC(N)=O)NC(=O)CNC(=O)[C@H](Cc2ccccc2)NC(=O)[C@H](Cc2c[nH]c3ccccc23)NC(=O)[C@H](Cc2c[nH]c3ccccc23)NC(=O)c2ccc(-c3nc(C(=O)OC)cs3)nc2-c2csc1n2 [TP14] (WWFGNKSLYRG; linker N-C via X1)
- binding to TNIK in the presence of ATP (TNIK [1]): bonded to TNIK in the presence of the saturated concentration of ATP
- stability in human serum, in words [5]: short half-life
- residual amount in the presence of GSH ([2]; 10 mM GSH, after 24 hours): > 95%
- reactivity with GSH, in words [2]: stable
- cytoplasmic uptake (CAPA), in words (HEK293H cells): efficient cytoplasmic translocation

Structure (SMILES): C=C1NC(=O)CNC(=O)[C@H](CC(N)=O)NC(=O)[C@H](CC(C)C)NC(=O)CNC(=O)[C@H](CCCCN)NC(=O)[C@H](C)NC(=O)[C@H]([C@@H](C)CC)NC(=O)[C@H](CO)NC(=O)[C@H](Cc2c[nH]c3ccccc23)NC(=O)[C@H](C)NC(=O)[C@H](Cc2c[nH]c3ccccc23)NC(=O)c2ccc(-c3nc(C(=O)OC)cs3)nc2-c2csc1n2 [TP8] (WAWSIAKGLNG; linker N-C via X1)
- binding to TNIK in the presence of ATP (TNIK [1]): bonded to TNIK in the presence of the saturated concentration of ATP
- half-life (τ1/2) in human serum [5]: 14 h
- stability in human serum, in words [5]: good stability

Structure (SMILES): C=C1NC(=O)[C@H](CO)NC(=O)[C@H](CSCC(N)=O)NC(=O)CNC(=O)[C@H](Cc2ccc(O)cc2)NC(=O)[C@H](C)NC(=O)[C@H](CO)NC(=O)[C@H](CC(=O)O)NC(=O)CNC(=O)[C@H](CC(C)C)NC(=O)[C@H](Cc2c[nH]c3ccccc23)NC(=O)[C@H](Cc2c[nH]c3ccccc23)NC(=O)c2ccc(-c3nc(C(=O)OC)cs3)nc2-c2csc1n2 [TP4] (WWLGDSAYGC(Cam)S; linker N-C via X1)
- half-life (τ1/2) in human serum [5]: 88 h
- stability in human serum, in words [5]: good stability
